Legend:
[1] = test system: A549 non-small cell lung cancer cell line; test: Proliferation of A549 (CellTiter Glo); assay type: cell-based; conditions: Homo sapiens, A549, 96 h, read-out: IC50 μM (A549 Cell Line)
Protocol: The diterpenoid compounds were tested in A549, a non-small cell lung cancer cell line harboring a K-Ras activating mutation. Briefly, A549 cells at a density of 1,000 cells/well were seeded in 96-well plates and incubated at 37° C. for 24 hours. A series of different concentrations of compound stocks (500×) were prepared by 3-fold serial dilution in DMSO. These compounds were further diluted in culture media and then added to cells so that the final DMSO concentration was not exceeding 0.25%. After 96 hours of incubation, 50 μL of CellTiter Glo reagent (Promega) was added to each well and luminescence was measured after 10 minutes using EnVision (PerkinElmer). Luminescence from cells treated with DMSO alone was set as Max and % of inhibition was calculated as follows: Inhibition %=(Max−Sample value)/Max×100. Data was analyzed using XL-fit software (ID Business Solutions Ltd.) and IC50, relative IC50, and % of top inhibition was calculated. Some of the compounds in this disclosure were very potent in blocking proliferation of A549 lung cancer cells at low nM range. In addition, potency of inhibiting A549 proliferation correlated well with its binding affinity to PKCs for this series of compounds. In other words, higher affinity binders had stronger inhibitory effects on A549 proliferation. This further support the notion that activation, rather than inhibition, of certain PKC isoforms is required to block proliferation of cancer cells, some of which may harbor K-Ras mutations. This is in sharp contrast to previous literature and common belief that inhibition of PKC is necessary to block cancer cell growth (Kang, 2014, New Journal of Science, 2014:1-36). Data presented here is in agreement with recent findings that many loss-of-function but not gain-of-function mutations of PKC isoforms have been identified in many human cancers (Antal et al., 2015, Cell, 160:489-502).

C1b domain of human PKCδ = target: T1, C1b domain of human PKCδ (Homo sapiens, UniProt Q05655); test: Competitive 3H-PDBu binding to C1b domain of PKCδ; conditions: Ki PKCδ, 3H-PDBu competition
T1 construct: Genes encoding C1b domains of human PKCα, δ, ε, θ, and PKD1 (PKCμ) were synthesized; made in house; host or cells: E. coli BL21(DE3)
T1 sequence (Q05655 230-280 limits assumed): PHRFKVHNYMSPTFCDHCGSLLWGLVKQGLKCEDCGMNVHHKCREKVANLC
Protocol: (§1) Compounds described in this disclosure were tested for binding affinity to C1b domain of PKC isoforms. Compound binding affinity to C1b domain of PKC isoforms was derived from competitive binding assay using radioactive tracer ^3H-PDBu and recombinant GST-C1b or full-length of human PKC proteins based on modified procedures from Methods in Molecular Biology, vol.
(§2) Genes encoding C1b domains of human PKCα, δ, ε, θ, and PKD1 (PKCμ) were synthesized and inserted into pGEX-2TK or pGEX-4T1 vectors for expression and production of GST-C1b proteins in E. coli BL21(DE3) via IPTG induction. The target proteins were purified by glutathione sepharose 4B and followed by ion exchange chromatography if needed to achieve purity >70%. Aliquots of the purified proteins were stored at −80 degree for binding assay (storage buffer: 20 mM Tris pH 8.0, 200 mM NaCl, 10% glycerol, 1 mM DTT).
(§3) The plate was incubated at 37° C. on a shaker at 300 rpm for 10 minutes and then put on ice for 20 minutes. […] The bottom of the filter plate was sealed and 50 μL of MicroScint-20 (PerkinElmer) cocktail was added to each well. ^3H-PDBu trapped in each well was counted using PerkinElmer MicroBeta2 Reader. Data were analyzed using GraphPad Prism5 with the model “log(inhibitor) vs. response-variable slope” to fit the IC50, and then IC50 was transformed to Ki using Cheng-Prusoff equation: Ki=IC50/(1+added radio ligand/Kd). Kd is the binding affinity of each protein preparation to ^3H-PDBu, determined experimentally.

C1b domain of human PKCα = target: T2, C1b domain of human PKCα (Homo sapiens, UniProt P17252); test: biochemical; assay type: binding; conditions: 3H-PDBu competition; for Ki: Ki PKCα
T2 construct: Genes encoding C1b domains of human PKCα, δ, ε, θ, and PKD1 (PKCμ) were synthesized; made in house; host or cells: E. coli BL21(DE3)
Protocol: as §1, §2
The plate was incubated at 37° C. on a shaker at 300 rpm for 10 minutes and then put on ice for 20 minutes. […] The bottom of the filter plate was sealed and 50 μL of MicroScint-20 (PerkinElmer) cocktail was added to each well. ^3H-PDBu trapped in each well was counted using PerkinElmer MicroBeta2 Reader. […] Kd is the binding affinity of each protein preparation to ^3H-PDBu, determined experimentally.

[2] = target: T3, C1b domain of human PKD1 (PKCμ) (Homo sapiens, UniProt Q15139); test: biochemical; assay type: binding
T3 construct: Genes encoding C1b domains of human PKCα, δ, ε, θ, and PKD1 (PKCμ) were synthesized; made in house; host or cells: E. coli BL21(DE3)
T3 sequence (Q15139 270-320 limits assumed): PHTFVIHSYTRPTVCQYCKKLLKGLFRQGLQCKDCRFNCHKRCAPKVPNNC
Protocol: as §1, §2, §3

C1b domain of human PKCθ = target: T4, C1b domain of human PKCθ (Homo sapiens, UniProt Q04759); test: Competitive 3H-PDBu binding to C1b domain of PKCθ
T4 construct: Genes encoding C1b domains of human PKCα, δ, ε, θ, and PKD1 (PKCμ) were synthesized; made in house; host or cells: E. coli BL21(DE3)
T4 sequence (Q04759 231-281 limits assumed): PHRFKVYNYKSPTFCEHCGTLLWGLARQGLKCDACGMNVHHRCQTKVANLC
Protocol: as §1, §2, §3

C1b domain of human PKCε = target: T5, C1b domain of human PKCε (Homo sapiens, UniProt Q02156); test: Competitive 3H-PDBu binding to C1b domain of PKCε
T5 construct: Genes encoding C1b domains of human PKCα, δ, ε, θ, and PKD1 (PKCμ) were synthesized; made in house; host or cells: E. coli BL21(DE3)
T5 sequence (Q02156 242-292 limits assumed): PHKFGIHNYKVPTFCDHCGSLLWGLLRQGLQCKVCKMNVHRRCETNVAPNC
Protocol: as §1, §2, §3

Compound	IC50 [1]	Ki (C1b domain of human PKCδ)	Ki (C1b domain of human PKCα)	Ki [2]	Ki (C1b domain of human PKCθ)	Ki (C1b domain of human PKCε)	Ki PKCα (C1b domain of human PKCα)
CC1=C[C@H]2[C@@]3(O)[C@H](C)C[C@]4(OC(=O)CCc5scnc5C)[C@H]([C@@H]3C=C(CO)C[C@]2(O)C1=O)C4(C)C [Compound K101-C1320]	0.2 to 0.6 µM	30 to 60 nM	2000 to 4000 nM	1 to 30 nM	–	–	–
CC1=C[C@H]2[C@@]3(O)[C@H](C)C[C@]4(OC(=O)C[C@H](N)Cc5ccccc5)[C@H]([C@@H]3C=C(CO)C[C@]2(O)C1=O)C4(C)C [Compound K101-C1358]	1 to 2 µM	1 to 30 nM	200 to 400 nM	5 to 10 nM	–	–	–
CC1=C[C@H]2[C@@]3(O)[C@H](C)C[C@]4(OC(=O)CCc5cnn(C)c5)[C@H]([C@@H]3C=C(CO)C[C@]2(O)C1=O)C4(C)C [Compound K101-C1323]	2 to 5 µM	200 to 400 nM	> 8000 nM	100 to 200 nM	–	–	–
CC1=C[C@H]2[C@@]3(O)[C@H](C)C[C@]4(OC(=O)[C@@H](N)CCCCCCc5ccc(C(F)F)cc5)[C@H]([C@@H]3C=C(CO)C[C@]2(O)C1=O)C4(C)C [Compound K101-C137002]	0.1 to 0.2 µM	1 to 30 nM	200 to 400 nM	5 to 10 nM	1 to 30 nM	30 to 60 nM	–
CC1=C[C@H]2[C@@]3(O)[C@H](C)C[C@]4(OC(=O)[C@H](N)CCCCCCCCc5ccccc5)[C@H]([C@@H]3C=C(CO)C[C@]2(O)C1=O)C4(C)C [Compound K101-C136101]	0.01 to 0.03 µM	1 to 30 nM	400 to 800 nM	5 to 10 nM	1 to 30 nM	1 to 30 nM	–
CC1=C[C@H]2[C@@]3(O)[C@H](C)C[C@]4(OC(=O)[C@H](N)CCCc5ccccc5)[C@H]([C@@H]3C=C(CO)C[C@]2(O)C1=O)C4(C)C [Compound K101-C1351]	0.2 to 0.6 µM	30 to 60 nM	1000 to 2000 nM	1 to 30 nM	–	–	–
CC1=C[C@H]2[C@@]3(O)[C@H](C)C[C@]4(OC(=O)C(Cc5ccccc5)C(=O)O)[C@H]([C@@H]3C=C(CO)C[C@]2(O)C1=O)C4(C)C (stereo partly drawn) [Compound K101-C1353]	1 to 2 µM	400 to 800 nM	> 8000 nM	4000 to 6000 nM	–	–	–
CC1=C[C@H]2[C@@]3(O)[C@H](C)C[C@]4(OC(=O)[C@@H](N)CCCCCCCCc5ccccc5)[C@H]([C@@H]3C=C(CO)C[C@]2(O)C1=O)C4(C)C [Compound K101-C136102]	0.001 to 0.01 µM	1 to 30 nM	30 to 60 nM	< 5 nM	< 5 nM	5 to 10 nM	–
CC1=C[C@H]2[C@@]3(O)[C@H](C)C[C@]4(OC(=O)C[C@@H](N)Cc5ccccc5)[C@H]([C@@H]3C=C(CO)C[C@]2(O)C1=O)C4(C)C [Compound K101-C1344]	1 to 2 µM	30 to 60 nM	1000 to 2000 nM	1 to 30 nM	–	–	–
CC1=C[C@H]2[C@@]3(O)[C@H](C)C[C@]4(OC(=O)[C@@H](N)CCCCCCc5ccc(C(F)(F)F)cc5)[C@H]([C@@H]3C=C(CO)C[C@]2(O)C1=O)C4(C)C [Compound K101-C135902]	0.01 to 0.03 µM	5 to 10 nM	–	5 to 10 nM	1 to 30 nM	1 to 30 nM	E (E=>60 nM and ≤10 nM)
